Measured values taken from patent US20260234144A1 (TAY THERAPEUTICS LIMITED, priority 2023, published 2026).

System: R223X stop codon in the mutated luciferase gene, ADXC8 luciferase reporter cell line
Experiment: cells
Format: cell-based
Settings: 24 h, ADXC8 cells, 24 hours; for EC (100% of 200 uM G418 response): read-out: pC100%, negative logarithm of the concentration giving the same response as 200 μM G418; for Emax: read-out: Fold Over Control, maximum fold response relative to 200 μM G418

Row | Structure (SMILES) | EC (100% of 200 uM G418 response) [µM] | Emax [%]
1 | CNc1nc(N[C@H]2CN[C@@H](COC)C2)nc2nc(C)cc(C)c12 [Example 406] | 1 to 10 | –
2 | CNc1nc(N[C@H]2CN[C@H](C(F)F)C2)nc2nc(C)cc(C)c12 [Example 407] | 1 to 10 | –
3 | CNc1nc(NC2CN(C)CC23CC3)nc2nc(C)cc(C)c12 (stereo not shown) [Example 408] | 1 to 10 | –
4 | CNc1nc(NC2CCN(C)C2(C)C)nc2nc(C)cc(C)c12 (stereo not shown) [Example 409] | 1 to 10 | 100 to 3000
5 | CNc1nc(NC2CNCC23COC3)nc2nc(C)cc(C)c12 (stereo not shown) [Example 410] | > 31.6 | 0 to 100
6 | CNc1nc(N[C@H]2CN[C@@H](CO)C2)nc2nc(C)cc(C)c12 [Example 411] | 1 to 10 | –
7 | CNc1nc(NC2CC[C@H]2N(C)C)nc2nc(C)cc(C)c12 (stereo partly shown) [Example 412] | 1 to 10 | –
8 | CNc1nc(N[C@H]2CN[C@H](CF)C2)nc2nc(C)cc(C)c12 [Example 413] | 0.1 to 1 | –
9 | CNc1nc(N[C@H]2CN[C@H](COC)C2)nc2nc(C)cc(C)c12 [Example 414] | 1 to 10 | –
10 | CNc1nc(N[C@H]2CN[C@H](CO)C2)nc2nc(C)cc(C)c12 [Example 415] | 1 to 10 | –
11 | CNc1nc(NC23CCCN(CC2)C3)nc2nc(C)cc(C)c12 (stereo not shown) [Example 416] | > 31.6 | 0 to 100
12 | CNc1nc(N[C@H]2CNC[C@@H]2C(F)(F)F)nc2nc(C)cc(C)c12 [Example 417] | 1 to 10 | –
13 | CNc1nc(N[C@H]2CNC[C@H]2CO)nc2nc(C)cc(C)c12 [Example 418] | 1 to 10 | –
14 | CCNc1nc(N[C@@]23CNC[C@@H]2C3)nc2nc(C)cc(C)c12 [Example 419] | 0.1 to 1 | –
15 | CNc1cc(N[C@H]2CN(C)C[C@@H]2OC)nc2nc3c(c(C)c12)CCC3 [Example 421] | 0.1 to 1 | 100 to 3000
16 | CNc1cc(N[C@H]2CN(C)C[C@H]2OC)nc2nc3c(c(C)c12)CCC3 [Example 424] | 0.1 to 1 | 100 to 3000
17 | CNc1cc(N[C@H]2CN(C)C[C@@H]2O)nc2nc3c(c(C)c12)CCC3 [Example 425, (3S,4S)-1-methyl-4-((5-methyl-4-(methylamino)-7,8-dihydro-6H-cyclopenta[b][1,8]naphthyridin-2-yl)amino)pyrrolidin-3-ol] | 0.1 to 1 | –
18 | COc1ccccc1CN1CCC(Nc2nc(N)c3c(C)cc(C)nc3n2)CC1 [Example 426, N^2-(1-(2-methoxybenzyl)piperidin-4-yl)-5,7-dimethylpyrido[2,3-d]pyrimidine-2,4-diamine] | 1 to 10 | 100 to 3000

Row | Structure (SMILES) | EC (100% of 200 uM G418 response) [µM] | Emax [%]
19 | CNc1nc(NC2CCN3CCCC23)nc2nc(C)cc(C)c12 (stereo not shown) [Example 439] | > 31.6 | 0 to 100
20 | CNc1nc(N[C@H]2C3CC[C@@H]2NC3)nc2nc(C)cc(C)c12 [Example 444] | 10 to 100 | 100 to 3000
21 | CNc1nc(NC2CN3CCC2C3)nc2nc(C)cc(C)c12 (stereo not shown) [Example 449] | > 31.6 | 0 to 100
22 | Cc1cc(C)c2c(N)nc(NC3CCN(CC4CCC4)CC3)nc2n1 [Example 454] | 1 to 10 | 100 to 3000
23 | COCc1ccccc1CN1CCC(Nc2nc(N)c3c(C)cc(C)nc3n2)CC1 [Example 455] | 1 to 10 | 100 to 3000
24 | Cc1cc(C)c2c(N)nc(NC3CCN(Cc4ccc(C(F)(F)F)cc4)CC3)nc2n1 [Example 456] | 1 to 10 | 100 to 3000
25 | Cc1cc(C)c2c(N)nc(NC3CCN(Cc4ccc(F)cc4)CC3)nc2n1 [Example 457] | 0.1 to 1 | 100 to 3000
26 | CC(=O)Nc1ccc(CN2CCC(Nc3nc(N)c4c(C)cc(C)nc4n3)CC2)cc1 [Example 458] | 10 to 100 | 100 to 3000
27 | Cc1cc(C)c2c(N)nc(NC3CCN(Cc4cncs4)CC3)nc2n1 [Example 459] | 1 to 10 | 100 to 3000
28 | Cc1cc(C)c2c(N)nc(NC3CCN(Cc4ccc(O)cc4)CC3)nc2n1 [Example 460] | 1 to 10 | 100 to 3000
29 | Cc1cc(C)c2c(N)nc(NC3CCN(Cc4cscn4)CC3)nc2n1 [Example 461] | 1 to 10 | 100 to 3000
30 | Cc1cc(C)c2c(N)nc(NC3CCN(Cc4cccc(C(=O)N(C)C)c4)CC3)nc2n1 [Example 462] | > 31.6 | 0 to 100
31 | Cc1cc(C)c2c(N)nc(NC3CCN(Cc4nccs4)CC3)nc2n1 [Example 463] | 1 to 10 | 100 to 3000
32 | COCc1cccc(CN2CCC(Nc3nc(N)c4c(C)cc(C)nc4n3)CC2)c1 [Example 464] | 10 to 100 | 100 to 3000
33 | Cc1cc(C)c2c(N)nc(NC3CCN(Cc4ccccc4F)CC3)nc2n1 [Example 465] | 1 to 10 | 100 to 3000
34 | Cc1cc(C)c2c(N)nc(NC3CCN(Cc4cccc(F)c4)CC3)nc2n1 [Example 466] | 1 to 10 | 100 to 3000
35 | Cc1cc(C)c2c(N)nc(NC3CCN(Cc4ccns4)CC3)nc2n1 [Example 467] | 1 to 10 | 100 to 3000
